10 compounds from ChEMBL document CHEMBL1201862, “PubChem BioAssay data set” (2004) can be followed below.

Assay in all cases: growth of human tumour cells (NCI), 48 h
Assay [1] deals with Malme-3M.
The test system of assay [2] is UACC-62.
Assay [3] concerns SNB-75.
Assay [4] concerns SK-MEL-2.
Assay [5] deals with CAKI-1.
Assay [6] relates to Hs-578T.
Assay [7] relates to HCT-116.
For assay [8], the system named is A549.
Assay [9] relates to SF-268.
The subject of assay [10] is RPMI-8226.
In assay [11] the test system is NCI-H522.
In assay [12] the test system is SK-MEL-28.
The test system of assay [13] is HCC 2998.
Assay [14] relates to TK-10.
The test system of assay [15] is OVCAR-8.
The test system of assay [16] is SK-MEL-5.
The test system of assay [17] is HOP-92.
Assay [18] relates to MDA-N.
Assay [19] concerns PC-3.
Assay [20] relates to A498.

SMILES strings stand for the structures.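 Each compound was tested at five concentrations against cells in 96-well plates for 48 hours. GI50: concentration for 50% inhibition of growth.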 The source made the active and inactive calls. Rule as the data show it: active = GI50 up to about 1.1 µM and inactive = higher.

Take `CCCCCCCCCCCCCCCCOCC(CCl)OP(=O)(O)OP(=O)(O)OCC1OC(n2ccc(N)nc2=O)C(O)C1O` (centres undefined): the GI50 in assay [1] is > 100 µM (inactive); in assay [2], > 100 µM (inactive); in assay [3], 6.07 µM (inactive); in assay [4] it was > 100 µM (inactive); in [5] it was > 100 µM (inactive); in [6] it was > 100 µM (inactive). The GI50 in assay [7] was > 100 µM (inactive); in [8], > 100 µM (inactive); in [9] it was > 100 µM (inactive); in [10], > 100 µM (inactive); in assay [11] it was > 100 µM (inactive); in assay [12], 99.3 µM (inactive). In addition, the GI50 in assay [13], in assay [14], in assay [15], in assay [16], in [17] and in assay [18] was > 100 µM (inactive) each time. The results for the GI50 in [19] and in assay [20] were 87.7 µM (inactive) and > 100 µM (inactive), respectively.
Take `CCN(CC)C1CCC(C2c3cc4c(cc3OC(N3CCOCC3)C2C)OCO4)CC1` (centres undefined): the GI50 in [1] was 21.6 µM (inactive); in assay [2], 16.7 µM (inactive); in assay [3], 61.8 µM (inactive); in assay [4], 5.62 µM (inactive); in assay [5], > 100 µM (inactive); in assay [6], 28.7 µM (inactive). Also, the GI50 in assay [7] was 32.3 µM (inactive); in assay [8], 27.5 µM (inactive); in assay [9], > 100 µM (inactive); in [10] it was 15.5 µM (inactive); in assay [11], 12.4 µM (inactive); in assay [12] it was 16.3 µM (inactive). The GI50 in [13] was 10 µM (inactive); in [14], > 30.6 µM (inactive); in assay [15], 23.6 µM (inactive); in assay [16], 9.31 µM (inactive); in assay [17] it was 4.09 µM (inactive); in assay [18], 4.28 µM (inactive). Further, the GI50 is 10.4 µM (inactive) in [19] and 21 µM (inactive) in assay [20].
As for `C/C(=N\NC(=S)N1CCC(N2CCCCC2)CC1)c1ccccn1`, the GI50 in assay [1] was > 100 µM (inactive); in assay [2], 3.33 µM (inactive); in [3] it was 2.87 µM (inactive); in assay [4] it was > 100 µM (inactive); in assay [5] it was 2.07 µM (inactive); in [6], 4.72 µM (inactive). The GI50 in [7] is 2.79 µM (inactive); in [8] it was 3.15 µM (inactive); in [9], 3.68 µM (inactive); in [10] it was 2.2 µM (inactive); in assay [11], < 0.01 µM (active); in assay [12], 4.12 µM (inactive). Moreover, the GI50 was 11.7 µM (inactive) in assay [13]; 2.38 µM (inactive) in assay [14]; 3.21 µM (inactive) in assay [15]; 2.66 µM (inactive) in [16]; 2.92 µM (inactive) in [17]; 2.49 µM (inactive) in assay [18]. Besides, the GI50 in assay [19] is 3.56 µM (inactive); in [20], 2.37 µM (inactive).
With `COc1cc(-c2oc3c(OC)c(O)cc(O)c3c(=O)c2OC)ccc1O`, the GI50 in assay [1] was > 47.8 µM (inactive); in assay [2], 3.61 µM (inactive); in assay [3], 4.02 µM (inactive); in [4], 2.75 µM (inactive); in assay [5], 3.13 µM (inactive); in assay [6] it was 1.84 µM (inactive). For the same compound, the GI50 in [7] was 6.4 µM (inactive); in assay [8], 7.29 µM (inactive); in assay [9], 3.08 µM (inactive); in assay [10], 4.09 µM (inactive); in assay [11], 8.17 µM (inactive); in [12], 12.9 µM (inactive). Besides, the GI50 is 10.9 µM (inactive) in [13]; 12.4 µM (inactive) in assay [14]; 8.17 µM (inactive) in [15]; 6.31 µM (inactive) in assay [16]; 3.83 µM (inactive) in [17]; 10.6 µM (inactive) in assay [18]. The GI50 in assay [19] was 6.44 µM (inactive); in [20], 4.2 µM (inactive).
For the compound `CC(=O)NC1C(OCc2ccccc2)OC(CO)C(O)C1OCC(=O)N1CCCC1C(=O)N[C@@H](CCC(=O)NCCNCCNc1c2ccccc2nc2cccc([N+](=O)[O-])c12)C(N)=O` (some centres undefined), the GI50 in assay [1] is 2.57 µM (inactive); in assay [2], 5.24 µM (inactive); in assay [3] it was 6.64 µM (inactive); in assay [4] it was 3.67 µM (inactive); in [5] it was 1.94 µM (inactive); in assay [6] it was 3.89 µM (inactive). The GI50 in [7] was 0.979 µM (active); in assay [8] it was 1.52 µM (inactive); in assay [9], 2.41 µM (inactive); in assay [10], 0.37 µM (active); in assay [11], 1.45 µM (inactive); in assay [12], 6.68 µM (inactive). Also, the GI50 is 2.67 µM (inactive) in [13]; 4.27 µM (inactive) in assay [14]; 2.19 µM (inactive) in assay [15]; 1.48 µM (inactive) in [16]; 1.37 µM (inactive) in assay [17]; 2.88 µM (inactive) in assay [18]. For the same compound, the GI50 in assay [19] was 2.94 µM (inactive); in assay [20] it was 1.04 µM (active).
Consider `Cc1c(-c2ccccc2)c(-c2ccc(OCCN(C)C)cc2)n2ccccc12`, for which the GI50 was 4.38 µM (inactive) in assay [1]; 1.84 µM (inactive) in assay [2]; 8.38 µM (inactive) in assay [3]; 7.74 µM (inactive) in assay [4]; 11.2 µM (inactive) in [5]; 5.41 µM (inactive) in [6]. The GI50 in assay [7] is 5.61 µM (inactive); in [8], 13.9 µM (inactive); in [9] it was 14.3 µM (inactive); in assay [10] it was 2.69 µM (inactive); in [11] it was 9.06 µM (inactive); in assay [12], 1.79 µM (inactive). The GI50 in assay [13] was 1.69 µM (inactive); in [14] it was 13.2 µM (inactive); in [15] it was 13.8 µM (inactive); in assay [16] it was 1.87 µM (inactive); in assay [17], 8.59 µM (inactive); in assay [18] it was 4.37 µM (inactive). The GI50 in assay [19] was 6.34 µM (inactive); in assay [20], 14.8 µM (inactive).
On to `O=[N+]([O-])c1cccc2nc3ccccc3c(NCCCN3CCCCC3)c12`, for which the GI50 is 0.0164 µM (active) in assay [1]; 0.0151 µM (active) in assay [2]; 0.0205 µM (active) in assay [3]; 0.0148 µM (active) in [4]; 0.0312 µM (active) in [5]; 0.0385 µM (active) in assay [6]. Also, the GI50 is < 0.01 µM (active) in assay [7]; < 0.01 µM (active) in assay [8]; 0.0191 µM (active) in assay [9]; < 0.01 µM (active) in assay [10]; < 0.01 µM (active) in assay [11]; 0.0417 µM (active) in [12]. Further, the GI50 in assay [13] is < 0.01 µM (active); in [14] it was 0.0256 µM (active); in [15], 0.0132 µM (active); in assay [16], < 0.011 µM (active); in assay [17], < 0.01 µM (active); in assay [18], 0.0102 µM (active). Further, the GI50 in [19] was < 0.01 µM (active); in assay [20], < 0.0115 µM (active).
With `CCSc1n/c(=C\c2ccco2)c2nnnn12`, the GI50 in assay [1], in assay [2], in assay [3], in assay [4], in assay [5] and in assay [6] was > 100 µM (inactive) in each case. For the same compound, the GI50 in assay [7], in assay [8], in assay [9], in assay [10], in [11] and in [12] was > 100 µM (inactive) in each case. In addition, the GI50 in assay [13], in assay [14], in assay [15], in assay [16], in assay [17] and in assay [18] was > 100 µM (inactive) throughout. Further, the GI50 in assay [19] and in assay [20] was > 100 µM (inactive) in each case.
As for `O=C1CC(=O)NC(NN2C(=O)/C(=C/c3ccc(Cl)cc3)N=C2c2ccccc2)=N1`, the GI50 in [1] was 17.3 µM (inactive); in assay [2], 12.5 µM (inactive); in assay [3], 29.1 µM (inactive); in assay [4], 15.5 µM (inactive); in [5], 72.6 µM (inactive); in [6], 14.3 µM (inactive). In addition, the GI50 was 15.8 µM (inactive) in assay [7]; 14.6 µM (inactive) in assay [8]; 14.1 µM (inactive) in assay [9]; 11.3 µM (inactive) in assay [10]; 10.1 µM (inactive) in assay [11]; 19.1 µM (inactive) in assay [12]. Also, the GI50 in assay [13] was 11.7 µM (inactive); in [14], 16.5 µM (inactive); in assay [15] it was 14.5 µM (inactive); in assay [16], 17.7 µM (inactive); in assay [17], 12.4 µM (inactive); in assay [18] it was 15.8 µM (inactive). For the same compound, the GI50 is 14 µM (inactive) in assay [19] and 16.9 µM (inactive) in assay [20].
Take `COC(=O)C1=C(C)NC(=O)N2[C@@H](CCOCc3ccccc3)CC[C@@H]12`: the GI50 in [1] was > 50 µM (inactive); in assay [2], > 50 µM (inactive); in assay [3], 25 µM (inactive); in [4], > 50 µM (inactive); in assay [5], > 50 µM (inactive); in assay [6] it was > 50 µM (inactive). Moreover, the GI50 in [8], in assay [9], in assay [10], in assay [11], in [12] and in assay [13] was > 50 µM (inactive) throughout. In addition, the GI50 in assay [14], in [15], in [16], in assay [17], in assay [18] and in assay [19] was > 50 µM (inactive) each time. Also, in [20], the GI50 was > 50 µM (inactive).
